Reference: patent US8338423B2, “Compositions for the treatment of hyperphenylalaninemia” (Universidad de Zaragoza, priority 2007, dated 2012)

Assays:
[1] = target: T1, PAH103-428 (catalytic domain) (Homo sapiens, UniProt P00439); experiment: ANS-monitored thermal unfolding of PAH103-428; format: binding; conditions: for ΔT0.5 PAH103-428 / T0.5 PAH103-428: 100 μM compound; for ΔT0.5 PAH103-428: vs no ligand; for T0.5 PAH103-428: mean ± SD; for stabilization of PAH103-428: 100 μM ligand
T1 construct: made in house; host or cells: E. coli
T1 sequence (P00439 103-428): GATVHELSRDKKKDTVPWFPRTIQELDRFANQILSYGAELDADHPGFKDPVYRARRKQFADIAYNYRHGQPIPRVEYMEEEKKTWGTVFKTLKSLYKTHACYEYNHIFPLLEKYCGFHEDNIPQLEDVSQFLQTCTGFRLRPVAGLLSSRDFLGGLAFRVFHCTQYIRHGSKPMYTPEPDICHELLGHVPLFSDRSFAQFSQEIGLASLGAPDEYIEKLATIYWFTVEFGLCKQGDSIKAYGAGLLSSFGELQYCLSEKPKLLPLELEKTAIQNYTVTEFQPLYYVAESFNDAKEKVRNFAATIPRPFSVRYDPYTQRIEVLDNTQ
Procedure: (§1) HTS for ligand-induced PAH stabilization was performed by monitoring the thermal denaturation of recombinant pure PAH protein in the presence of the extrinsic fluorescent probe 8-anilino 1-naphtalene sulfonic acid (ANS; Aldrich). HTS experiments were performed in a FluoDia T70 High Temperature Fluorescence Microplate Reader (Photon Technology International). Protein-ligand solutions (200 uL) were dispensed into 96-well microplates (ThermoFast®96 Skirted from Abgene) and overlayed with mineral oil. Protein solutions contained 0.1 mg/ml PAH (2 μM in PAH subunit) in 20 mM Hepes 200 mM NaCl pH 7.0 and 100 μM ANS. Ligands were added in DMSO, at 100 μM and 2.5% final concentration, respectively. Control experiments in the absence of DMSO and/or ligands were routinely performed in each microplate. Ligands (from MayBridge HitFinder™ Collection Database) were manually added to the microplates containing the protein solutions and incubated at 25° C. for 30 min before loading them onto the microplate reader. Thermal denaturation was monitored by following the increase in ANS fluorescence intensity due to protein unfolding λexc=395 and λern=500 nm; filters (Matulis D, et. Al., Biochemistry 2005, 44(13):5258-66). Fluorescence was registered in the 25-75° C. range, at a 1° C./min scan rate and allowing the system to equilibrate at each temperature for 1 min before fluorescence acquisition The experiments were real-time monitored using the software provided by the manufacturer. After smoothing and normalization of the experimental data, ligand induced stabilization was screened by estimation of the T0.5 as midpoint temperature of the transition defined as the temperature where half of the unfolded fluorescence signal (fu) is experimentally observed, using a home-built software written in C++ and the following expression (equation 1): […]
(§2) Additional thermal denaturation experiments were performed on a Cary Eclipse fluorescence spectrophotometer equipped with a temperature controlled Peltier multicell holder (Varian). Samples containing PAH (2 μM subunit) in 20 mM NaHepes, 200 mM NaCl, pH 7.0, 100 μM ANS, 2.5% DMSO and 0-100 μM ligands were incubated at room temperature for 30 min to allow equilibration prior to measurements. Thermal denaturation was monitored by following changes in ANS fluorescence emission (excitation at 395 and emission at 500 nm; slits 10 nm) at a 1 K/min in a 20-80° C. range. Each run contained 4 different samples, including a control in the absence of ligand. Data analysis was performed by fitting of the experimental fluorescence to equation 1.
Similar ligand-induced stabilization experiments were performed using i) a double truncated form of PAH equivalent to the catalytic domain (PAH103-428) lacking both the regulatory N-terminal domain and the tetramerization motif and existing as a functional dimmer and ii) the R68S-PAH mutant, associated to mild PKU and one of the few PKU mutants that display enough stability to be purified as a stable tetramer.

wt-PAH = target: T2, wt-PAH (Homo sapiens, UniProt P00439); experiment: ANS-monitored thermal unfolding of wt-PAH; format: binding; conditions: for ΔT0.5 PAHwt / T0.5 PAHwt (half denaturation temperature): 100 μM compound; for ΔT0.5 PAHwt: vs no ligand; for T0.5 PAHwt (half denaturation temperature): mean ± SD; for stabilizing effect on wt-PAH: 25 μM compound (FIG. 2)
T2 construct: made in house; host or cells: E. coli
T2 sequence (P00439 1-452): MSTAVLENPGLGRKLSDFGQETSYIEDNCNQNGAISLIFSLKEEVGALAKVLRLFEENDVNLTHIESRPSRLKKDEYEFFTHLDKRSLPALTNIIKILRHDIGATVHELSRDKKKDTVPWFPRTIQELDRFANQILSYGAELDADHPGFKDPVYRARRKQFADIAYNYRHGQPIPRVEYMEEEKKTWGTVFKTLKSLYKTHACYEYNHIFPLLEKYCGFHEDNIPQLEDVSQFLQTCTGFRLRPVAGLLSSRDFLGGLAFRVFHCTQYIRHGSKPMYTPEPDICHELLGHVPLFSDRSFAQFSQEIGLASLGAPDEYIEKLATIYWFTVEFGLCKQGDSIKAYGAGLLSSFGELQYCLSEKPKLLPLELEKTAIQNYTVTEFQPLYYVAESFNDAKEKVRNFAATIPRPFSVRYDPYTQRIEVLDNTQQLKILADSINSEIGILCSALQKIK
Procedure: as §1, §2

## Cc1onc(-c2ccccc2)c1-c1n[nH]c(N)c1C#N [Compound 5, 5-amino-3-(5-methyl-3-phenyl-4-isoxazolyl)-1H-pyrazole-4-carbonitrile]
[1]
  ΔT0.5 PAH103-428: 4.3 °C
  T0.5 PAH103-428: 49.2 ± 1.2 °C
wt-PAH
  ΔT0.5 PAHwt: 2.6 °C
  T0.5 PAHwt (half denaturation temperature): 52.1 ± 0.9 °C

## Cn1cnc([N+](=O)[O-])c1N1CCN(C(c2ccccc2)c2ccccc2)CC1 [Compound 6, 1-benzhydryl-4-(1-methyl-4-nitro-1H-imidazol-5-yl)piperazine]
[1]
  ΔT0.5 PAH103-428: 8.4 °C
  T0.5 PAH103-428: 53.3 ± 1.5 °C
  stabilization of PAH103-428: significantly stabilized
wt-PAH
  ΔT0.5 PAHwt: 2.7 °C
  T0.5 PAHwt (half denaturation temperature): 52.2 ± 1.3 °C

## Nc1c(-c2ccc3ccccc3n2)c2ccc([N+](=O)[O-])cc2c(=O)n1Cc1ccccc1 [Compound 11, 3-amino-2-benzyl-7-nitro-4-(2-quinolyl)-1,2-dihydroisoquinolin-1-one]
[1]
  ΔT0.5 PAH103-428: 10.1 °C
  T0.5 PAH103-428: 55.0 ± 1.3 °C
  stabilization of PAH103-428: significantly stabilized
wt-PAH
  stabilizing effect on wt-PAH: significant
  ΔT0.5 PAHwt: 13.6 °C
  T0.5 PAHwt (half denaturation temperature): 63.1 ± 2.9 °C

## Cc1ccnc(-n2c(=S)[nH]c3sc(C)c(C)c3c2=O)c1 [Compound 13, 5,6-dimethyl-3-(4-methyl-2-pyridinyl)-2-thioxo-2,3 dihydrothieno[2,3-d]pyrimidin-4(1H)-one]
[1]
  ΔT0.5 PAH103-428: 1.2 °C
  T0.5 PAH103-428: 46.1 ± 0.7 °C
  stabilization of PAH103-428: only a slight stabilized
wt-PAH
  stabilizing effect on wt-PAH: significant
  ΔT0.5 PAHwt: 7.2 °C
  T0.5 PAHwt (half denaturation temperature): 56.7 ± 1.5 °C
